# Data taken from US20100292255A1, “Therapeutic Compounds and Their Use in Treating Diseases and Disorders” (Myriad Pharmaceuticals, Inc., priority 2007, published 2010).
# Test system: T1, purified human Hsp90
# T1 construct: purified human Hsp90 (Stressgen, SPP-770)
# Assay: Hsp90 binding assay: displacement of BODIPY-labeled geldanamycin measured by fluorescence polarization
# Conditions: 5 μM compound; BODIPY-GM 10 nM, Hsp90 30 nM, overnight at room temperature
# Summary of the method: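 Fluorescence polarization measured displacement of BODIPY-geldanamycin (10 nM) from purified human Hsp90 (30 nM). The buffer was HEPES-KOH pH 7.3 with molybdate, NP-40, gamma globulin and DTT, 2% DMSO, overnight at room temperature, ex/em 485/530 nm. % inhibition was calculated against DMSO controls, and points confounded by compound fluorescence were excluded.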
row,GM displacement from purified Hsp90 measured by FP Inhibition by 5 μM compd. (%),Compound
1,9.0,"N#Cc1cc2c(cc1Sc1nc3c(N)ncn(CCC4CCN(C(=O)[C@@H](N)C(F)(F)F)CC4)c-3n1)OCO2 [compound 134, 6-[(6-amino-3-{2-[1-(3,3,3-trifluoroalanyl)piperidin-4-yl]ethyl}-3H-purin-8-yl)thio]-1,3-benzodioxole-5-carbonitrile]"
2,27.0,"CN(C)C(CCn1cnc(N)c2nc(Sc3cc4c(cc3Br)OCCO4)nc1-2)C1CC1 (stereo not drawn) [compound 143, 8-[(7-bromo-2,3-dihydro-1,4-benzodioxin-6-yl)thio]-3-[3-cyclopropyl-3-(dimethylamino)propyl]-3H-purin-6-amine]"

# Same assay, conditions: BODIPY-GM 10 nM, Hsp90 30 nM, overnight at room temperature; read-out: GM displacement from purified Hsp90 measured by FP IC 50
row,IC50 [µM],Compound
1,> 5,"C[C@@H](NC(=O)[C@@H](C)OC(=O)C(C)(C)C)C(=O)N1CCC(Cn2c(Sc3cc4c(cc3Br)OCCO4)nc3c(N)ncnc32)CC1 [compound 127, (1R)-2-({(1R)-2-[4-({6-amino-8-[(7-bromo-2,3-dihydro-1,4-benzodioxin-6-yl)thio]-9H-purin-9-yl}methyl)piperidin-1-yl]-1-methyl-2-oxoethyl}amino)-1-methyl-2-oxoethyl pivalate]"
2,0.44,"C[C@@H](NC(=O)C(C)(C)C)C(=O)N1CCC(Cn2c(Sc3cc4c(cc3Br)OCCO4)nc3c(N)ncnc32)CC1 [compound 128, N-{(1R)-2-[4-({6-amino-8-[(7-bromo-2,3-dihydro-1,4-benzodioxin-6-yl)thio]-9H-purin-9-yl}methyl)piperidin-1-yl]-1-methyl-2-oxoethyl}-2,2-dimethylpropanamide]"
3,3,"C[C@@H](NC(=O)CC(C)(C)C)C(=O)N1CCC(Cn2c(Sc3cc4c(cc3Br)OCCO4)nc3c(N)ncnc32)CC1 [compound 129, N-{(1R)-2-[4-({6-Amino-8-[(7-bromo-2,3-dihydro-1,4-benzodioxin-6-yl)thio]-9H-purin-9-yl}methyl)piperidin-1-yl]-1-methyl-2-oxoethyl}-3,3-dimethylbutanamide]"
4,1.1,"C[C@H](O)C(=O)N[C@@H](C)C(=O)N1CCC(Cn2c(Sc3cc4c(cc3Br)OCCO4)nc3c(N)ncnc32)CC1 [compound 130, (2S)—N-{(1S)-2-[4-({6-Amino-8-[(7-bromo-2,3-dihydro-1,4-benzodioxin-6-yl)thio]-9H-purin-9-yl}methyl)piperidin-1-yl]-1-methyl-2-oxoethyl}-2-hydroxypropanamide]"
5,1.9,"C[C@H](NC(=O)CO)C(=O)N1CCC(Cn2c(Sc3cc4c(cc3Br)OCCO4)nc3c(N)ncnc32)CC1 [compound 131, N-{(1S)-2-[4-({6-Amino-8-[(7-bromo-2,3-dihydro-1,4-benzodioxin-6-yl)thio]-9H-purin-9-yl}methyl)piperidin-1-yl]-1-methyl-2-oxoethyl}-2-hydroxyacetamide]"
6,0.045,"CC(=O)N1CCC(CCn2c(Sc3cc4c(cc3Br)OCCO4)nc3c(N)ncnc32)CC1 [compound 140, 9-[2-(1-Acetylpiperidin-4-yl)ethyl]-8-[(7-bromo-2,3-dihydro-1,4-benzodioxin-6-yl)thio]-9H-purin-6-amine]"

# More lines, now with the values behind:
row,Compound,IC50 [µM]
1,"N#Cc1cc2c(cc1Sc1nc3c(N)ncnc3n1CCC1CCN(C(=O)[C@@H](N)C(F)(F)F)CC1)OCO2 [compound 133, 6-[(6-Amino-9-{2-[1-(3,3,3-trifluoroalanyl)piperidin-4-yl]ethyl}-9H-purin-8-yl)thio]-1,3-benzodioxole-5-carbonitrile]",0.505
2,"N#Cc1cc2c(cc1Sc1nc3c(N)ncnc3n1CCC1CCN(C(=O)[C@@H]3CC(F)(F)CN3)CC1)OCO2 [compound 135, 6-[(6-Amino-9-{2-[1-(4,4-difluoro-L-prolyl)piperidin-4-yl]ethyl}-9H-purin-8-yl)thio]-1,3-benzodioxole-5-carbonitrile]",0.9
3,"C[C@@H](N)C(=O)N1CCCC(CCCn2c(Sc3cc4c(cc3Br)OCO4)nc3c(N)ncnc32)C1 (stereo partly drawn) [compound 136, 9-(3-{1-[(2R)-2-Aminopropanoyl]piperidin-3-yl}propyl)-8-[(6-bromo-1,3-benzodioxol-5-yl)thio]-9H-purin-6-amine]",0.11
4,"CC(=O)NC(CCn1c(Sc2cc3c(cc2Br)OCO3)nc2c(N)ncnc21)C1CC1 (stereo not drawn) [compound 137, N-{3-[6-Amino-8-(6-bromo-benzo[1,3]dioxol-5-ylsulfanyl)-purin-9-yl]-1-cyclopropyl-propyl}-acetamide]",0.24
5,"CC(=O)NC(CCn1c(Sc2cc3c(cc2Br)OCCO3)nc2c(N)ncnc21)C1CC1 (stereo not drawn) [compound 139, N-(3-{6-Amino-8-[(7-bromo-2,3-dihydro-1,4-benzodioxin-6-yl)thio]-9H-purin-9-yl}-1-cyclopropylpropyl)acetamide]",0.24
6,"Nc1ncnc2c1nc(Sc1cc3c(cc1Br)OCO3)n2CCC(NC(=O)CO)C1CC1 (stereo not drawn) [compound 141, N-(3-{6-Amino-8-[(6-bromo-1,3-benzodioxol-5-yl)thio]-9H-purin-9-yl}-1-cyclopropylpropyl)-2-hydroxyacetamide]",0.17
7,"CN(C)C(CCn1c(Sc2cc3c(cc2Br)OCCO3)nc2c(N)ncnc21)C1CC1 (stereo not drawn) [compound 142, 8-[(7-Bromo-2,3-dihydro-1,4-benzodioxin-6-yl)thio]-9-[3-cyclopropyl-3-(dimethylamino)propyl]-9H-purin-6-amine]",0.205
